The record followed here is PMC11945542 (Viruses, 2025).

Data set [1] deals with T1, TIE-2 (Homo sapiens, UniProt Q02763). Briefly: Vanadate-induced TIE-2 receptor phosphorylation in CHO cells. In kind it is cell-based. Details: host or cells: Chinese hamster ovary (CHO) cells. The note with it: Chinese hamster ovary (CHO) cells, read-out: IC50, vanadate-induced inhibition of TIE-2 receptor phosphorylation.
In a further data set the test system is human adenovirus (HAdV). Briefly: microbe, parasite or virus in culture. The data set is classed as cell-based, human adenovirus serotype 11 (RCAd11pGFP).
Data set [2] concerns Rift Valley fever virus (RVFV). In kind it is cell-based. Conditions: A549 cells, primary screening, 100 to 0.4 µM, 16 h post infection.
The target in another data set is MAPK11 (Homo sapiens, UniProt Q15759). In words: Kinase inhibition profile: MAPK11. The note with it: kinase inhibition profile (DSTT, Cerep); preliminary. In kind it is biochemical.
Sequence of MAPK11 (Q15759 whole entry): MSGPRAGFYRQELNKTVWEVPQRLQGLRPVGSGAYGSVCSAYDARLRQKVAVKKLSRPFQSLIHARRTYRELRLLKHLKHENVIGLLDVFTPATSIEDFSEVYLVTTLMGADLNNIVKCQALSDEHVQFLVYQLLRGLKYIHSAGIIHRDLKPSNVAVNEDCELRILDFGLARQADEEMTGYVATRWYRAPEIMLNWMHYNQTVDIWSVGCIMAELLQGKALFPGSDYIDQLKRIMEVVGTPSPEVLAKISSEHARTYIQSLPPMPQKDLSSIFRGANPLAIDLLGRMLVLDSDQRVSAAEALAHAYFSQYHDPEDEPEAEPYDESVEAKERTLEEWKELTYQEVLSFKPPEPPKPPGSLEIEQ
Data set [3] deals with SARS-CoV-2. Briefly: microbe, parasite or virus in culture. The data set is classed as cell-based. Conditions: Calu-3 cells, 48 h, immunofluorescence of infected cells.
Data set [4] concerns SARS-CoV-2. The data set is classed as in vivo, mice (B6.Cg-Tg(K18-ACE2)2Prlmn/J). The note with it: K18-ACE2 mice, oral b.i.d., vs placebo.
Another data set addresses CDK8 (Homo sapiens, UniProt P49336). In words: Kinase inhibition profile: CDK8. In kind it is biochemical. Conditions: kinase inhibition profile (DSTT, Cerep); preliminary.
In data set [5] the test system is SARS-CoV-2. In words: microbe, parasite or virus in culture. The data set is classed as cell-based. Conditions: for IC50: read-out: IC50 against SARS-CoV-2.
Data set [6] has as its system influenza virus (INFV) H1N1 A/California/07/09. In kind it is cell-based. The note with it: read-out: IC50 against influenza virus; Vero cells, MOI 0.01, 35 °C, TPCK trypsin.
In data set [7] the test system is Zika virus (ZIKV) FSS13025. The data set is classed as cell-based.
Data set [8] relates to dengue virus (DNV) serotype 2 D2Y98P. In words: microbe, parasite or virus in culture. In kind it is cell-based, dengue virus serotype 2. The note with it: read-out: IC50 against dengue virus type 2.
The next data set has as its system adenovirus 5 (HAdV5). Briefly: microbe, parasite or virus in culture. Conditions: read-out: IC50 against HAdV type 5. The data set is classed as cell-based.
For data set [9], the system named is SARS-CoV-2. In words: Primary human mucociliary airway (ALI) SARS-CoV-2 infection model. The data set is classed as cell-based. Conditions: tested at 10 µM.
The target in another data set is MAPK14 (Homo sapiens, UniProt Q16539). Briefly: Kinase inhibition profile: MAPK14. In kind it is biochemical. The note with it: kinase inhibition profile (DSTT, Cerep); preliminary.
Sequence of MAPK14 (Q16539 whole entry): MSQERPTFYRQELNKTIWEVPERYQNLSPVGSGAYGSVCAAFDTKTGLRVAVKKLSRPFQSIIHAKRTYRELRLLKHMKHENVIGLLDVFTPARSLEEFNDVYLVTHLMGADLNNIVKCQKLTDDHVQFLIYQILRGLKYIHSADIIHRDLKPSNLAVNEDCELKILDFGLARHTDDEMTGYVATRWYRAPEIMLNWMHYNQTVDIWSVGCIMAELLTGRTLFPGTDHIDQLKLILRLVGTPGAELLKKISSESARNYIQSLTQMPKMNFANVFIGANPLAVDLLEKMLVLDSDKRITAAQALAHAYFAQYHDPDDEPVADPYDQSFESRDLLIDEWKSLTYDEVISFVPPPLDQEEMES
For data set [10], the system named is herpes simplex virus (HSV) 1 MacIntyre. In kind it is cell-based, herpes simplex virus 1.
Data set [11] relates to chikungunya virus (CHKV) 181/25. In kind it is cell-based.
The target in a further data set is KDR (Homo sapiens, UniProt P35968). Briefly: Kinase inhibition profile: KDR.
Sequence of KDR (P35968 20-1356): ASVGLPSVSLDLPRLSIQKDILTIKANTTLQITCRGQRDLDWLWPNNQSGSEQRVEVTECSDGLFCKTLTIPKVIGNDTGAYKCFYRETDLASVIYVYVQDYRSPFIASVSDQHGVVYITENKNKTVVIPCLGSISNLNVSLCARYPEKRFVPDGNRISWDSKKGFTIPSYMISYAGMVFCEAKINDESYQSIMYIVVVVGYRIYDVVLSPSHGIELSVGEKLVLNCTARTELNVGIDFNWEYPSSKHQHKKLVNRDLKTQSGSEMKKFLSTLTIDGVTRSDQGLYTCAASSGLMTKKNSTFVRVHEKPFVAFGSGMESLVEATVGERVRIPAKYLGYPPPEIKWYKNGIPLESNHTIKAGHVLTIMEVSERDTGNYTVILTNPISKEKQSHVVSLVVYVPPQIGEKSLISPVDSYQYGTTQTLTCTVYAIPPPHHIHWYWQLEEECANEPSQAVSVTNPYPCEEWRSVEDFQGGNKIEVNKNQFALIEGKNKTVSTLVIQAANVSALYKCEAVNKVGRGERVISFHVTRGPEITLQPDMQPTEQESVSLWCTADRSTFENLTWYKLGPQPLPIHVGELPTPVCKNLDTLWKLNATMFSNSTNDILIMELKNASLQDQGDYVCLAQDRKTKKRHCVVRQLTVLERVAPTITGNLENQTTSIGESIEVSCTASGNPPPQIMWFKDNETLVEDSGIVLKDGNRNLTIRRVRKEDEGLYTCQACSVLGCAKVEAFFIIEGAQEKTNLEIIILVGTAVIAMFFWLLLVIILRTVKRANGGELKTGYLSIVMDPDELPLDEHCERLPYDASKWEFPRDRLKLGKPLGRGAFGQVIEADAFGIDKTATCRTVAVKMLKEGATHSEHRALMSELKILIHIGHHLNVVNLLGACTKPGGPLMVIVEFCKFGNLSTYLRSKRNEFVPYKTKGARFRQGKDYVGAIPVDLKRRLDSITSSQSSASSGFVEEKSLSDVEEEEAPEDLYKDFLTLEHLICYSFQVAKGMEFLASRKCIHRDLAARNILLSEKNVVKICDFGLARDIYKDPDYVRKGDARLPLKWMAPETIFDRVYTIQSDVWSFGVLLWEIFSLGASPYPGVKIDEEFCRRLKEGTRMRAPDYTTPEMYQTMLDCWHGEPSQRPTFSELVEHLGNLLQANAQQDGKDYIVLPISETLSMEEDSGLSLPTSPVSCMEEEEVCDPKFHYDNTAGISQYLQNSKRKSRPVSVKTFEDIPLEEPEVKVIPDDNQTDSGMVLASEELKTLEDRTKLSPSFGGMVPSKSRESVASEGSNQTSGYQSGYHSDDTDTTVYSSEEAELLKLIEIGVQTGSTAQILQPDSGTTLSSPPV
For data set [12], the target named is T1, TIE-2. In words: Kinase inhibition profile: TIE-2. Conditions: kinase inhibition profile (DSTT, Cerep); preliminary. The data set is classed as biochemical.
Data set [13] deals with Herpes simplex virus (HSV) 2 MS. The data set is classed as cell-based, herpes simplex virus 2.
Data set [14] has as its system human cytomegalovirus (HCMV) Merlin strain. Briefly: HCMV infectivity assay in human foreskin fibroblasts. In kind it is cell-based. The note with it: 5 days, column of table headed IC50 [µM].
Setting [15] is: 60 mg/kg (Figure 7), 100 mg/kg (methods).

“Also recorded” adds a separate entry of the source. Where two headings read alike, the source gives them in different places.

For orientation: IC50 means the point on the concentration scale where inhibition reaches its midpoint. As a reminder, the EC50 is the concentration needed to bring the measured effect to its halfway point.

T1 sequence (Q02763 23-1124): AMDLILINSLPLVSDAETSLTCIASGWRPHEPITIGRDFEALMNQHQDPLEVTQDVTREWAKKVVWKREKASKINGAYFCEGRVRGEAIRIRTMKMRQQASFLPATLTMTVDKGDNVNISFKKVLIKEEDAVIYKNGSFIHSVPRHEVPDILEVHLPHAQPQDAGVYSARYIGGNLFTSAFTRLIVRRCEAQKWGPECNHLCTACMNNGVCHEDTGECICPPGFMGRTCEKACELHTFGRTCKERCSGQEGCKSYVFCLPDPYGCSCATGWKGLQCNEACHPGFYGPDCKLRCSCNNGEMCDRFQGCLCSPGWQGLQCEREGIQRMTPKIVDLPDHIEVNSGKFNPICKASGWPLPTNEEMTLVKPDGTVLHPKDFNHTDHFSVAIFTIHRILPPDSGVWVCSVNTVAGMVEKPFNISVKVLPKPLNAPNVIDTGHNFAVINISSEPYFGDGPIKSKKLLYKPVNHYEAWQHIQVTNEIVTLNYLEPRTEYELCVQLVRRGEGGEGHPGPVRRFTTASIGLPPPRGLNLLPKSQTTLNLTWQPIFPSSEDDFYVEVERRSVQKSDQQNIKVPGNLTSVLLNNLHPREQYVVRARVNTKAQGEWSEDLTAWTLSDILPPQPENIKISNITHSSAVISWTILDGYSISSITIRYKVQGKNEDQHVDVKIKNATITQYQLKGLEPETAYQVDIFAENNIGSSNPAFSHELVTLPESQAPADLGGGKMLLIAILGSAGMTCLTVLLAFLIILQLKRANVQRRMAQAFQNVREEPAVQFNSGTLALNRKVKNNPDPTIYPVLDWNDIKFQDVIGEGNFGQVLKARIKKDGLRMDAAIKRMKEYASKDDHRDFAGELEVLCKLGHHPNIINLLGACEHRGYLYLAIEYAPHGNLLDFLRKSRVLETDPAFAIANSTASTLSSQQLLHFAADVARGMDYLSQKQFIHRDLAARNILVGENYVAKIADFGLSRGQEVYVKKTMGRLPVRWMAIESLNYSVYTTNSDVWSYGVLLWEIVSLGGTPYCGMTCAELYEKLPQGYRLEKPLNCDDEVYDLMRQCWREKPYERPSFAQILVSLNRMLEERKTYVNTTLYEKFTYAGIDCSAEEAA
Sequence of CDK8 (P49336 whole entry): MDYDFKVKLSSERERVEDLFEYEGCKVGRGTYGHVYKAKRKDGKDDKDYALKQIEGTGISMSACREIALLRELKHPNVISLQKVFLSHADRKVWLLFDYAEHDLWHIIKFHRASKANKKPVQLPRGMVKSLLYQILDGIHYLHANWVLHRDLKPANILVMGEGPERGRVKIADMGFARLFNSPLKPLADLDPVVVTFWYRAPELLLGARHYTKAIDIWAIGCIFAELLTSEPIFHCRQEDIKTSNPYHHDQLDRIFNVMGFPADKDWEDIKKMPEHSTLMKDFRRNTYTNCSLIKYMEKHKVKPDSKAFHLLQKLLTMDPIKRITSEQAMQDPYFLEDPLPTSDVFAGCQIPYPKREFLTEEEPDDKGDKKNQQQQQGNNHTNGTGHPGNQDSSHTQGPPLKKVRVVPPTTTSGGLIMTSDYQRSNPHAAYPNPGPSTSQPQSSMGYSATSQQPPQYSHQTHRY
Sequence of CDK8 (P24863 whole entry partner): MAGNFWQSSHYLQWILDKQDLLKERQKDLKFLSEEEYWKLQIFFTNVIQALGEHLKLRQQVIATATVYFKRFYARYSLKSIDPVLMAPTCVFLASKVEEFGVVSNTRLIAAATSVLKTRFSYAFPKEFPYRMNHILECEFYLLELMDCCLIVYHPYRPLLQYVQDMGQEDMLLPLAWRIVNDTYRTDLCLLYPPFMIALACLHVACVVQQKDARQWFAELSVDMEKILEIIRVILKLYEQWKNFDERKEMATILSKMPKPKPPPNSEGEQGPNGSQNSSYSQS

Take `CNC(=O)c1cc(Oc2ccc(NC(=O)Nc3cc(C(F)(F)F)ccc3-n3ccnc3)cc2)ccn1` [Compound 2]: the IC50 on TIE-2 [1] (unit given as nm) is 3 nM. In the data set with human adenovirus (HAdV), the “antiviral activity against HAdV (in words)” value is recorded as “did not have activity”. Also, the “antiviral activity against RVFV (in words)” value in data set [2] is given as “dose–response antiviral activity”.

With `CNC(=O)c1cc(Oc2ccc(NC(=O)Nc3cc(C)c(Cl)cc3-n3cccc3)cc2)ccn1` [Compound 4], the IC50 against MAPK11 was 430 nM; in the data set with SARS-CoV-2 [3] (Severe acute respiratory syndrome coronavirus 2, read-out: IC50 against SARS-CoV-2) it was 7700 nM; against CDK8, 31 nM; at TIE-2 [1], 126 nM; with SARS-CoV-2 [5] (Severe acute respiratory syndrome coronavirus 2, HeLa-ACE2 cells, 24 h, immunofluorescence of infected cells), 500 nM; in [6] it was 10700 nM. Moreover, the IC50 in [8] (Dengue virus, Vero) was 10 nM; in data set [8], 12 nM; in the data set on adenovirus 5 (HAdV5) (Human mastadenovirus C, Vero) it was 600 nM; with adenovirus 5 (HAdV5), 630 nM; against MAPK14, 87 nM; on KDR, 7.9 nM. Further, in the data set with SARS-CoV-2 [4] (setting [15]), the “animal survival after lethal SARS-CoV-2 challenge” value was “protective effect on animal survival; also recorded: increased survival”. For the same molecule, in the data set on SARS-CoV-2 [4] (setting [15]), the “body weight loss after infection” value was “reduced body weight loss”. Further, the “viral titers in lungs” value in the data set with SARS-CoV-2 [4] (days 1, 3 and 6 after infection, qRT-PCR) is given as “statistically significant reduction in viral titers; also recorded: reduced viral load in lungs”. Also, in data set [7], the “activity against ZIKV” value is “dose-dependent activity; also recorded: Active”. Moreover, in the data set with SARS-CoV-2 [9], the “inhibition of SARS-CoV-2 replication in primary human mucociliary airway model” value is reported as “showed activity”. Also, the “activity against HSV-1” value in data set [10] was “Not Active”. For the same molecule, the “activity against CHKV” value in [11] (Vero cells, MOI 0.01, column of table headed IC50 [µM]) is recorded as “Not Active”. For the same molecule, the “inhibition of TIE-2 (in words)” value at TIE-2 [12] is “strong inhibition”. In data set [13], the “activity against HSV-2” value is given as “dose-dependent activity; also recorded: Active”.

Regarding `CNC(=O)c1cc(Oc2ccc(NC(=O)Nc3cc(C(F)(F)F)ccc3-n3cncn3)cc2)ccn1` [Compound 1], the “IC50 against SARS-CoV-2” value in the data set with SARS-CoV-2 [3] is given as “did not exhibit antiviral properties”. In addition, the concentration for half-maximal inhibition (IC50) was 27 nM at TIE-2 [1]; 3200 nM in the data set with SARS-CoV-2 [5] (Severe acute respiratory syndrome coronavirus 2, HeLa-ACE2, 24 h); 39500 nM in data set [6]; 8430 nM in data set [8] (Dengue virus, Vero); 8430 nM in data set [8]; 1160 nM in the data set on adenovirus 5 (HAdV5) (Human mastadenovirus C, Vero). Besides, the IC50 with adenovirus 5 (HAdV5) is 1160 nM. Also, the “SI (selectivity index)” value with SARS-CoV-2 [5] (HeLa-ACE2 cells) is 5. The half-maximal effective concentration (EC50) in the data set with human adenovirus (HAdV) (Human adenovirus sp., A549, 24 h, read-out: EC50 against HAdV) stood at 4500 nM. In addition, the “activity against ZIKV” value in data set [7] is recorded as “Not Active”. For the same molecule, the “activity against HSV-1” value in data set [10] is “Not Active”. In data set [11], the “activity against CHKV” value is “Not Active”. Also, in [14], the “activity against HCMV” value is recorded as “Active”. In addition, the “antiviral activity against RVFV (in words)” value in [2] was “antiviral activity was seen at 25 µM”. For the same molecule, the “activity against HSV-2” value in data set [13] is on record as “Active”.

Turning to `O=C(Nc1ccc(Oc2ccncc2)cc1)Nc1cc(C(F)(F)F)ccc1-n1cncn1` [Compound 3], the “host cell toxicity by visual observation” value in the data set with A549 cells was “displayed host cell toxicity at the highest concentrations”. Also, the IC50 at TIE-2 [1] was determined as 36 nM. Moreover, in the data set on human adenovirus (HAdV), the “antiviral activity against HAdV (in words)” value is “most potent compound”. Further, the “antiviral activity against RVFV (in words)” value in [2] is recorded as “most potent compound”.
